pIC50: −log10 of the molar value.
Key:
[1] = tested on: HCT116 (human colorectal carcinoma); test: In vivo anticancer activity, HCT116 tumor transplantation model; parameters: species or system BALB/c nude mice (human tumor xenograft)
Method: (§1) Male BALB/c nude mice (4-week old) used in human tumor transplantation studies were purchased from Central Animal Laboratory Inc. (Korea) or Orient Bio Inc. (Korea). The animals were permitted ad libitum access to sterile feed and water in a sterile breeding system at 23+0.5° C.
(§2) For use in tumor transplantation studies, the human cancer cell lines HCT116 (human colorectal carcinoma, CCL-247), PC-3 (human prostate adenocarcinoma, CRL-1435), and A549 (human lung carcinoma, CCL-185) were purchased from ATCC (American Type Culture Collection, Rockville, Md., USA).
(§3) HCT116 cells were cultured in an air incubator under conditions of 37° C. and 5% CO2 using McCoy'SA medium (Gibco BRL) containing 10% heat-inactivated fetal bovine serum (Gibco BRL) and 1% antibiotics-antymycotics (Gibco BRL). Cell lines other than the HCT116 cell line were cultured in an air incubator under conditions of 37° C. and 5% CO2 using RPM1640 medium (Gibco BRL) containing 10% heat-inactivated fetal bovine serum (Gibco BRL) and 1% antibiotics-antymycotics (Gibco BRL).
(§4) Studies on the in vivo transplantation of human cancer cells were carried out in the following manner. Human cancer cells (HCT116, PC-3, and A549) that proliferated in vitro were injected subcutaneously into the abdominal region of BALB/c nude mice and allowed to proliferate in vivo. 20-25 days after the injection, the mice were sacrificed by cervical dislocation, and the solid cancer that proliferated in each of the mice was isolated aseptically, and connective or necrotic tissue and skin was removed therefrom, thus collecting a fresh cancer tissue. 50 mg of a fragment was taken aseptically from the cancer tissue and inserted into a 16-gauge trocar which was then transplanted subcutaneously into the upper abdominal region of mice.
(§5) 15-30 days after the human cancer cell lines have been transplanted into the BALB/c nude mice, only mice in which the cancer cells have proliferated to a given size were selected and used in the experiment. When the tumor size in each of the test groups reached 100-200 mm^3 after cancer cell transplantation, the experiment was started.
(§6) The anticancer effect of each drug was evaluated based on the inhibition rate (IR %) of tumor volume that indicates the tumor volume at reference date in comparison with control groups. […] Tumor size=(short diameter)×(long diameter)/2 I.R.(%)=[1−(mean tumor size of drug-administered group)/(mean tumor size of control group)]×100

[2] = tested on: A549 (human lung carcinoma); test: In vivo anticancer activity, A549 tumor transplantation model; parameters: species or system BALB/c nude mice (human tumor xenograft); details: for IR (%): Table 20
Method: as §1, §2, §3, §4, §5, §6

in vivo = details: BALB/c nude, mouse, ip
HL60 cell line = test: Inhibitory effect on growth of HL60 cell line (MTT); assay type: cell-based; details: Homo sapiens, HL-60, 72 h, 3 days culture
Method: In the culture of HL60 cells, 10% FBS-containing RPMI1640 medium was used Each of test substances was serially diluted in DMSO to a concentration of 10 mg/ml and serially diluted in PBS to a final concentration ranging from 100 μg/ml to 0.03 μg/ml. 20 μl (micro-liter) of each of the serially diluted test substances and 180 μl (micro-liter) of a medium containing 60×10^4 cells/ml were added to a 96-well plate and cultured under conditions of 37° C. and 5% CO2 for 3 days. After completion of the culture, 50 μl (micro-liter) of a solution of 1.25 mg/ml MTT (3-(4,5-dimethylthiazol-2-yl)-2,5-diphenyltetrazolium bromide) in PBS was added to each well of the plate and incubated at 37° C. for 3 hours. The formed formazan crystal was dissolved in 150 μl (micro-liter) of DMSO, and the absorbance at 570 nm was measured.

[3] = tested on: PC-3 (human prostate adenocarcinoma); test: In vivo anticancer activity, PC-3 tumor transplantation model; parameters: species or system BALB/c nude mice (human tumor xenograft); details: for IR (%): Table 21
Method: as §1, §2, §3, §4, §5, §6

HDAC enzymes = test: Effects against HDAC enzymes (BIOMOL kit, Hela nuclear extract); assay type: biochemical; details: 37° C. 1 hour
Method: To measure effects against HDAC enzymes, a kit (BIOMOL International, LP) was used Each of test substances was dissolved in DMSO to a concentration of 10 mg/ml, and an assay buffer, an enzyme solution, a substrate and a staining reagent were prepared. […] Also, the staining reagent was a mixture of assay buffer (19/20), developer (1/20) and TSA (1/100). The assay buffer, the enzyme solution, the test substance and the substrate were added sequentially to a 96-well plate, stirred on a rocker for 3 minutes, and then incubated at 37° C. for 1 hour. After completion of the incubation, the staining reagent was added, and the mixture was stirred on a rocker for 1 minute and then incubated at 37° C. for 20 minutes (the staining reagent was mixed before addition).

[4] = Maximum tolerated dose in the HCT116 xenograft experiments; details: BALB/c nude, mouse, in vivo, ip
[5] = BALB/c nude, mouse, in vivo, ip, 2 weeks
P450 (CYP3A4) = P450 (CYP3A4) (Homo sapiens, UniProt P08684); test: P450 (CYP3A4) inhibitory activity (BFC fluorescent substrate); assay type: in vitro ADME; details: FIG. 6; in words
Method: P450 (CYP3A4) is a metabolic enzyme, and non-inhibition of the enzyme by a test compound means that the test substance has a low possibility of causing side effects by interaction with other drugs. Each of compounds used in the test was dissolved in DMSO (10 mg/ml), and the dilution of each test substance to 2×10^−2 mg/ml was additionally performed in 200 μl (micro-liter) of a test system containing an assay buffer. The final solvent concentration was not higher than 2%. The CYP3A4 protein inhibitory test system included a total assay volume (100 μl (micro-liter)) of a NADPH production system (3.3 mM glucose-6-phosphate, 0.4 units/ml glucose-6-phosphate dehydrogenase, 1.3 mM NADP+ and 3.3 mM MgCl2.6H2O in assay buffer) and a test compound in each well of a 96-well plate. After pre-incubation at 37° C. for 10 minutes, 100 μl (micro-liter) of a KPO4 assay buffer containing […] P450 protein and 50 uM BFC (7-benzyloxy-trifluoromethylcoumarin) fluorescent probe substrate was added to the test system, and an enzyme reaction in the test system having a total assay volume of 200 μl (micro-liter) was initiated. […] Irradiation with fluorescence was carried out at an excitation wavelength of 409 nm and an emission wavelength of 530 nm.

[6] = Table 18, 80 mg/kg/day, qd x 5, 2 wks, ip
[7] = Table 19, 40 mg/kg/day, qd x 5, 2 wks, ip
[8] = Table 19, 60 mg/kg/day, qd x 5, 2 wks, ip
[9] = 60 mg/kg, b.i.wk(Mon, Thu), 3 wks, ip
[10] = 80 mg/kg, b.i.wk(Mon, Thu), 3 wks, ip
[11] = 100 mg/kg, b.i.wk(Mon, Thu), 3 wks, ip

Sequence of P450 (CYP3A4) (P08684 whole entry, species assumed): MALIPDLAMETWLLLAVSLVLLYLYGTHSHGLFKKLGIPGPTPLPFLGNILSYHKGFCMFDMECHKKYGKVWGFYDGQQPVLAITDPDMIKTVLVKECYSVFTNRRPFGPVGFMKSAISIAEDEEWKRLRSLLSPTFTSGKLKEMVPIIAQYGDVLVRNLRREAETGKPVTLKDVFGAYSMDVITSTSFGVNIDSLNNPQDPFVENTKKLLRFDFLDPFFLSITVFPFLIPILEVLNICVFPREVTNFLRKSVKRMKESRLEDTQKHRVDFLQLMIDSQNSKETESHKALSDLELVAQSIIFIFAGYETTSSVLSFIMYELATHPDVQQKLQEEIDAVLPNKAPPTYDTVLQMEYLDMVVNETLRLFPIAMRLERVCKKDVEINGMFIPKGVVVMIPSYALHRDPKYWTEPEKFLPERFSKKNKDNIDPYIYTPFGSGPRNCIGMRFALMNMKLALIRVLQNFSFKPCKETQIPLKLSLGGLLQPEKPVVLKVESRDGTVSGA

SMILES: Cc1[nH]c2ccccc2c1CCNCc1ccc(/C=C/C(=O)NO)cc1 [LBH 589, Panobinostat, reference compound]
- IR (%) ([1]; Table 18, 5 mg/kg/day, qd x 5, 2 wks, ip): 40%
- IR (%) ([1]; Table 18, 10 mg/kg/day, qd x 5, 2 wks, ip): 65%
- IR (%) ([1]; Table 19, 5 mg/kg/day, qd x 5, 2 wks, ip): 40%
- IR (%) ([1]; Table 19, 10 mg/kg/day, qd x 5, 2 wks, ip): 65%
- IR (%) ([1]; Table 22, 50 mg/kg/day, qd x 5, 3 wks, p.o): 0%
- IR (%) ([2]; 10 mg/kg/day, qd x 5, 3 wks): 58%
- MTD at 2 weeks (in vivo): 10 mg/kg
- pIC50 (HL60 cell line): 7.30 to 7.70
- IR (%) ([3]; 10 mg/kg/day, qd x 5, 3 wks): 48%

SMILES: O=C(/C=C/c1cccc(S(=O)(=O)Nc2ccccc2)c1)NO [PXD 101, Belinostat, reference compound]
- IR (%) [1, 6]: 38%
- pIC50 (HDAC enzymes): 6.70 to 7.00
- pIC50 (HL60 cell line): 6.70 to 7.00
- MTD at 2 weeks [4]: 80 mg/kg

SMILES: Cc1cc2cc(-c3ccc(N(CCCCCCC(=O)NO)C(=O)N4CCN(C)CC4)cc3)ccc2[nH]1 [Compound 334, N-(7-(hydroxyamino)-7-oxoheptyl)-4-methyl-N-(4-(2-methyl-1H-indol-5-yl)phenyl)piperazine-1-carboxamide]
- IR (%) [1, 7]: 47%
- IR (%) [1, 8]: 66%
- MTD at 2 weeks (in vivo): 60 mg/kg
- pIC50 (HL60 cell line): 7.70 to 8.00

SMILES: O=C(CCCCCCC(=O)Nc1ccccc1)NO [SAHA, vorinostat, reference compound]
- IR (%) ([1]; Table 18, 100 mg/kg/day, qd x 5, 2 wks, ip): 46%
- IR (%) ([1]; Table 22, 200 mg/kg/day, qd x 5, 3 wks, p.o): 26%
- maximum tolerated doses (MTDs) [5]: 100 mg/kg

SMILES: CCN1CCN(C(=O)N(CCCCCCC(=O)NO)c2ccc(-c3ccc4cnn(C)c4c3)cc2)CC1 [Compound 336, 4-ethyl-N-(7-(hydroxyamino)-7-oxoheptyl)-N-(4-(1-methyl-1H-indazol-6-yl)phenyl)piperazine-1-carboxamide]
- IR (%) [1, 7]: 56%
- IR (%) [1, 8]: 75%
- IR (%) ([1]; Table 19, 80 mg/kg/day, qd x 5, 2 wks, ip): 78%
- colon cancer (HCT 116) inhibitory effect compared to control drugs ([1]; ip, qd x 5, 2 wks, in words): excellent inhibitory effects on colon cancer
- MTD at 2 weeks (in vivo): 80 mg/kg
- pIC50 (HL60 cell line): 7.00 to 7.30

SMILES: Nc1ccccc1NC(=O)c1ccc(CNc2nccc(-c3cccnc3)n2)cc1 [MGCD 0103, reference compound]
- IR (%) ([1]; Table 22, 120 mg/kg/day, qd x 5, 3 wks, p.o): 50%

SMILES: CN1CCN(C(=O)N(CCCCCCC(=O)NO)c2ccc(-c3ccc4cnn(C)c4c3)cc2)CC1 [Compound 312, N-(7-(hydroxyamino)-7-oxoheptyl)-4-methyl-N-(4-(1-methyl-1H-indazol-6-yl)phenyl)piperazine-1-carboxamide]
- IR (%) ([1]; Table 18, 20 mg/kg/day, qd x 5, 2 wks, ip): 51%
- IR (%) ([1]; Table 18, 40 mg/kg/day, qd x 5, 2 wks, ip): 58%
- IR (%) ([1]; Table 18, 60 mg/kg/day, qd x 5, 2 wks, ip): 70%
- IR (%) [1, 6]: 81%
- IR (%) ([1]; Table 22, 150 mg/kg, b.i.wk(Mon, Thu), 3 wks, p.o): 52%
- IR (%) ([1]; Table 22, 180 mg/kg, b.i.wk(Mon, Thu), 3 wks, p.o): 55%
- IR (%) ([1]; Table 22, 210 mg/kg, b.i.wk(Mon, Thu), 3 wks, p.o): 69%
- colon cancer (HCT 116) inhibitory effect compared to control drugs ([1]; ip, qd x 5, 2 wks, in words): excellent colon cancer inhibitory effects
- inhibitory effect against colon cancer (HCT116) upon oral administration compared to LBH 589, SAHA and MGCD0103 ([1]; oral, twice a week for 3 weeks, in words): excellent inhibitory effect
- IR (%) [2, 9]: 50%
- IR (%) [2, 10]: 56%
- IR (%) [2, 11]: 71%
- inhibitory effect against non-small cell lung cancer (A549) ([2]; administered twice a week, in words): excellent inhibitory effect
- pIC50 (HL60 cell line): 7.00 to 7.30
- P450 3A4 inhibition (P450 (CYP3A4)): did not inhibit
- P450 3A4 inhibitory activity relative to LBH 589 (P450 (CYP3A4)): lower than that of LBH 589
- IR (%) [3, 9]: 39%
- IR (%) [3, 10]: 39%
- IR (%) [3, 11]: 59%
- inhibitory effects against prostate cancer (PC-3) compared to LBH 589 ([3]; twice a week for 3 weeks, in words): excellent inhibitory effects

Reference: patent publication US8466161B2, “Hydroxamate derivative, a production method for the same, and a pharmaceutical composition comprising the same” (Chong Kun Dang Pharmaceutical Corp., priority 2009, dated 2013)
